In PubChem BioAssay (NCI):
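Step 1: Grow cells in 96-well plates. Step 2: Expose to compound for 48 hours at 5 concentrations. Step 3: Interpolate endpoints linearly; if unreached, use highest concentration. Definition used: TGI = concentration required for complete inhibition of growth.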

How the values were obtained:
Experiment in all cases: NCI tumour cell line growth inhibition, 48 h
[1] = system: DLD-1 colon
[2] = system: HCT-116 colon
[3] = system: HOP-18 NSCLC
[4] = system: HOP-62 NSCLC
[5] = system: HOP-92 NSCLC
[6] = system: KM20L2 colon
[7] = system: M19-MEL melanoma
[8] = system: SNB-19 CNS
[9] = system: UACC-257 melanoma
[10] = system: A498 renal
[11] = system: SNB-78 CNS
[12] = system: BT-549 breast
[13] = system: PC-3 prostate

CCCC/C=C/C1Cc2ccccc2CN1S(=O)(=O)c1ccc(C)cc1 (stereo not given)
TGI [1]: 32.9 µM | TGI [2]: 3.35 µM | TGI [3]: > 100 µM | TGI [4]: > 100 µM | TGI [5]: 8.82 µM | TGI [6]: 26.2 µM | TGI [7]: 18.8 µM | TGI [8]: > 100 µM | TGI [9]: 17.9 µM

CCCCc1c2c(nc3c1CCCC3O)/C(=C/c1ccccc1)CCC2 (stereo not given)
TGI [10]: > 100 µM | TGI [2]: > 100 µM | TGI [3]: 89.5 µM | TGI [4]: > 100 µM | TGI [5]: > 100 µM | TGI [6]: 75.1 µM | TGI [7]: 57.1 µM | TGI [8]: > 100 µM | TGI [11]: > 100 µM | TGI [9]: 96.6 µM

CCCN(CCCC(NC(C)=O)C(=O)NCc1ccccc1)C(=O)NC (stereo not given)
TGI [10]: > 100 µM | TGI [1]: > 100 µM | TGI [2]: > 100 µM | TGI [4]: > 100 µM | TGI [5]: > 100 µM | TGI [6]: > 100 µM | TGI [7]: > 100 µM | TGI [8]: > 100 µM | TGI [11]: > 100 µM | TGI [9]: > 100 µM

COC(OC)c1cccc2c1C(=O)CCC1(O)c3ccccc3C1C2 (stereo not given)
TGI [1]: > 100 µM | TGI [2]: > 100 µM | TGI [3]: > 100 µM | TGI [4]: > 100 µM | TGI [7]: > 100 µM | TGI [8]: > 100 µM | TGI [11]: > 100 µM | TGI [9]: > 100 µM

CN(C)c1ccc(/C=C(\C#N)C(N)=C(C#N)C#N)cc1
TGI [10]: > 100 µM | TGI [12]: > 100 µM | TGI [2]: > 100 µM | TGI [4]: > 100 µM | TGI [5]: > 100 µM | TGI [13]: > 100 µM | TGI [8]: > 100 µM | TGI [9]: > 100 µM

CC(C)(C)c1ccc(-c2nc3ccc([N+](=O)[O-])cc3c(=O)o2)cc1
TGI [10]: 73.9 µM | TGI [12]: 76.9 µM | TGI [2]: 81.2 µM | TGI [4]: 60.9 µM | TGI [5]: 55.2 µM | TGI [13]: 72.5 µM | TGI [8]: > 100 µM | TGI [9]: 81.2 µM

CC1=C2c3c(C)ccc4ccc(C)c(c34)C2(O)C(C)C1=O (stereo not given)
TGI [10]: > 100 µM | TGI [12]: 57.4 µM | TGI [2]: > 100 µM | TGI [4]: > 100 µM | TGI [5]: > 100 µM | TGI [13]: > 100 µM | TGI [8]: > 100 µM | TGI [9]: > 100 µM

CC1CC[C@@]2(OC1)OC1C[C@H]3[C@@H]4C/C(=N\N(C)C)[C@@]5(O)CC(O)CC[C@]5(C)[C@H]4CC[C@]3(C)C1[C@@H]2C (stereo not given in full)
TGI [10]: > 100 µM | TGI [12]: > 100 µM | TGI [2]: 76.1 µM | TGI [4]: > 100 µM | TGI [5]: > 100 µM | TGI [13]: > 100 µM | TGI [8]: > 100 µM | TGI [9]: > 100 µM

NC(=O)N1N=C2c3ccccc3CC[C@@H]2C1c1ccccc1 (stereo not given in full)
TGI [10]: > 100 µM | TGI [1]: > 100 µM | TGI [2]: > 100 µM | TGI [4]: > 100 µM | TGI [6]: > 100 µM | TGI [7]: > 100 µM | TGI [8]: > 100 µM | TGI [11]: > 100 µM | TGI [9]: > 100 µM

CC(=O)C(=[N+]=[N-])C(=O)OC(C)(C)C#N
TGI [10]: > 10 µM | TGI [12]: > 10 µM | TGI [2]: > 10 µM | TGI [4]: > 10 µM | TGI [5]: > 10 µM | TGI [13]: > 10 µM | TGI [8]: > 10 µM | TGI [9]: > 10 µM

CC1(C)C(=O)C(C)(C)C12SSC1(S2)C(C)(C)C(=O)C1(C)C
TGI [10]: > 100 µM | TGI [12]: > 100 µM | TGI [2]: > 100 µM | TGI [4]: > 100 µM | TGI [5]: > 100 µM | TGI [13]: > 100 µM | TGI [8]: > 100 µM | TGI [9]: > 100 µM

O=C1CN2Cc3cc(N4CCOCC4)ccc3N=C2N1
TGI [10]: > 100 µM | TGI [12]: > 100 µM | TGI [2]: > 100 µM | TGI [4]: > 100 µM | TGI [5]: > 100 µM | TGI [13]: > 100 µM | TGI [8]: > 100 µM | TGI [9]: > 100 µM

CCCCCCOc1ccc(C(=O)NOCc2ccccc2)cc1
TGI [10]: > 100 µM | TGI [12]: > 100 µM | TGI [2]: > 100 µM | TGI [4]: > 100 µM | TGI [5]: > 100 µM | TGI [13]: > 100 µM | TGI [8]: > 100 µM | TGI [9]: > 100 µM

N#CCCN(CCC#N)c1ccc(C(N=Nc2ccccc2)=Nc2ccccc2)cc1
TGI [10]: > 100 µM | TGI [12]: > 100 µM | TGI [2]: > 100 µM | TGI [4]: > 100 µM | TGI [5]: > 100 µM | TGI [13]: > 100 µM | TGI [8]: > 100 µM | TGI [9]: > 100 µM

COc1cccc(NC(=S)Nn2c(C)nc3ccccc3c2=O)c1
TGI [10]: > 100 µM | TGI [1]: > 100 µM | TGI [2]: > 100 µM | TGI [3]: > 100 µM | TGI [4]: > 100 µM | TGI [5]: > 100 µM | TGI [7]: > 100 µM | TGI [9]: > 100 µM

CCCn1c(SCC)c2ccccc2c1-c1nc(F)nc(F)n1
TGI [10]: > 100 µM | TGI [2]: > 100 µM | TGI [4]: > 100 µM | TGI [5]: > 100 µM | TGI [6]: > 100 µM | TGI [7]: > 100 µM | TGI [8]: > 100 µM | TGI [11]: > 100 µM

O=C1/C(=C\c2cccc(Oc3ccccc3)c2)S(=O)(=O)C(c2ccccc2)N1c1ccc(Cl)cc1 (stereo not given)
TGI [10]: > 100 µM | TGI [12]: 49.9 µM | TGI [2]: 26.8 µM | TGI [4]: > 100 µM | TGI [5]: 30.8 µM | TGI [13]: > 100 µM | TGI [8]: 55.9 µM | TGI [9]: 94.3 µM

COC1=CC(=O)[C@H]2[C@H](C)C(c3ccccc3)[C@@]2(C)C1=O (stereo not given in full)
TGI [10]: > 100 µM | TGI [1]: > 100 µM | TGI [4]: > 100 µM | TGI [5]: > 100 µM | TGI [7]: > 100 µM | TGI [8]: > 100 µM | TGI [11]: > 100 µM

N#Cc1c(-c2ccco2)cc(-c2ccc(NCc3nc4ccccc4[nH]3)cc2)nc1N
TGI [10]: > 100 µM | TGI [1]: > 100 µM | TGI [2]: 45.9 µM | TGI [3]: 77.9 µM | TGI [4]: 62.8 µM | TGI [5]: 67.4 µM | TGI [7]: 63.4 µM | TGI [8]: > 100 µM

O=C(O)C1CCCN1Cc1cc2ccccc2c2ccccc12 (stereo not given)
TGI [10]: > 100 µM | TGI [12]: > 100 µM | TGI [2]: > 100 µM | TGI [4]: > 100 µM | TGI [5]: > 100 µM | TGI [13]: > 100 µM | TGI [8]: > 100 µM | TGI [9]: > 100 µM
